The values below come from patent US20170224731A1, “METHOD OF PRODUCING LEUKOCYTES USING PTPN2 INHIBITION FOR ADOPTIVE CELL TRANSFER” (MONASH UNIVERSITY, priority 2014, published 2017).

One data set concerns murine CD8+ T cells. Kind of data set: PTPN2 siRNA knock down in splenocytes, CD8+ T cell numbers after α-CD3/α-CD28 stimulation (FIG. 17). Conditions: 30 nM, 100 nM and 300 nM siRNA, α-CD3/α-CD28 (5 μg/ml each) for 48 h, versus GFP siRNA. Format: cell-based, C57BL/6 mice. On the procedure: FIG. 17. Knock down of PTPN2 using siRNAs in murine CD8+ T cells leads to enhanced TCR-mediated T cell responses. Splenocytes (1×10^7) from C57BL/6 mice were transfected overnight with 100 nM GFP siRNA or 30 nM, 100 nM and 300 nM PTPN2 siRNA or 30 nM BLOCK-iT™ Fluorescent Oligo using the Amaxa Mouse T cell Nucleofactor Kit. (A) Transfection efficiency of CD8^+ T cells was monitored with BLOCK-iT™ Fluorescent Oligo (Fluor.Oligo) by flow cytometry. (B) Transfected splenocytes were stimulated with plate-bound α-CD3 (5 μg/ml) and α-CD28 (5 μg/ml) for 48 h and stained with fluorochrome-conjugated α-CD8. CD8^+ T cell numbers were quantified with Calibrite Beads™ by flow cytometry. Results shown are means±SD for the indicated number of replicates.
Ptpn2 was knocked down transiently in primary murine T cells using Ptpn2 ([…], SEQ ID NO: 14); Dharmacon Thermo Scientific, Waltham, Mass.); green fluorescent protein (GFP; CAAGCUGACCCUGAAGUUCdTdT; Dharmacon Thermo Scientific, Waltham, Mass.) siRNA was used as a control. […] T cell numbers were monitored by flow cytometry. For quantification Calibrite Beads (BD Biosciences) were added to the wells before cells were harvested.
Splenocytes (1×10^7) from C57BL/6 mice were transfected overnight with 100 nM GFP siRNA or 30 nM, 100 nM and 300 nM PTPN2 siRNA using the Amaxa Mouse T cell Nucleofactor Kit. […] CD8+ T cell numbers were quantified by flow cytometry. […]

In data set [1] the test system is CD8+ naïve (CD62LhiCD44lo) splenic T cells. Kind of data set: Activation of naive CD8+ splenic T cells with plate-bound αCD3/CD28, surface markers by flow cytometry (FIG. 11). Format: cell-based, C57BL/6 mice. Conditions: plate-bound αCD3/CD28 for 48 h, versus vehicle. The source says: FIG. 11. […] T cells were stained with fluorochrome-conjugated antibodies to assess CD44, CD62L, IL-2Ra (CD25 subunit) and CD69 surface levels and mean fluorescence intensity (MFI) was monitored by flow cytometry.
T cells were stained with fluorochrome-conjugated antibodies to assess CD44, CD62L, IL-2Rα (CD25 subunit) and CD69 surface levels and mean fluorescence intensity (MFI) was monitored by flow cytometry.

Data set [2] concerns Naive (CD62LhiCD44lo) CD8+ LN T cells. The data set can be described thus: Stimulation of naive CD8+ LN T cells with anti-CD3/anti-CD28 ± PTPN2 inhibitor, MFI by flow cytometry (FIG. 14). Conditions: anti-CD3 (5 μg/ml) and anti-CD28 (5 μg/ml) for 60 h, inhibitor at various concentrations. Type of data set: cell-based, C57BL/6 mice. On the procedure: FIG. 14. […] Naive (CD62LhiCD44lo) CD8+ LN T cells (1×105) from C57BL/6 mice were stimulated with plate-bound anti-CD3 (5μg/ml) and anti-CD28 (5μg/m1) for 60 h±PTPN2 inhibitor at various concentrations. Cells were harvested and stained with fluorochrome-conjugated antibodies for CD44, CD69, CD25 and CD62L and mean fluorescence intensity (MFI) analyzed by flow cytometry. Results shown are means±SD for the indicated number of replicates.
CD8^+CD62L^hiCD44^lo naïve LN T cells (1×10^5/well) were stimulated in 96-well round-bottom plates with plate-bound α-CD3 (5 μg/ml) and a-CD28 (5 μg/ml) for 60 h. PTPN2 inhibitor was added twice daily to the culture. To determine the activation status cells were harvested, stained with fluorochrome-conjugated antibodies against α-CD25, α-CD44, α-CD62L and α-CD69 and analysed by flow cytometry.
In FIG. 14, the results of naive)(CD62L^hiCD44^loCD8+ LN T cells (1×105) from C57BL/6 mice that were stimulated with plate-bound anti-CD3 (5 μg/ml) and anti-CD28 (5 μg/ml) for 60 h±PTPN2 inhibitor (compound 8) at various concentrations is shown. Cells were harvested and stained with fluorochrome-conjugated antibodies for CD44, CD69, CD25 and CD62L and mean fluorescence intensity (MFI) analyzed by flow cytometry. Results shown are means±SD for the indicated number of replicates.
Background: Flow cytometry measures light scatter and fluorescence of single cells or particles in a stream.

The subject of data set [3] is CD8+ human blood lymphocytes. Kind of data set: Human PBMC stimulation with plate-bound α-CD3, T cell activation (CD69, CD154) by flow cytometry (FIG. 16). Type of data set: cell-based. Particulars: human PBMCs, plate-bound α-CD3 (1.25 and 2.5 μg/ml) for 24 h. The protocol:
FIG. 16. […] Freshly isolated human PBMCs (2×10^6) were stimulated with plate-bound α-CD3 (1.25 and 2.5 μg/ml) for 24 h. PBMCs were harvested and stained with fluorochrome-conjugated antibodies for CD45RA, CD8, CD69 and CD154 and T cell activation was monitored by flow cytometry. Representative CD8 versus CD69 and CD154 plots (numbers in outlined areas are the relative numbers in the gate) are shown.
(§1) Human blood was collected in 15 ml glass tubes containing Ficoll® gradient (GE Healthcare Life Sciences, Amersham, UK). Peripheral blood […] (PBMCs) were recovered by centrifugation (2200×rpm, 20 min at room temperature). PBMCs were incubated with PTPN2 inhibitor (compound 8) in serum-free RPMI 1640 for two hours at 37° C. and stimulated with plate-bound human α-CD3 (5 μg/ml; clone OKT-3) for 24 h. Cells were harvested and stained with fluorochrome-conjugated antibodies against α-CD8, α-CD45RA, α-CD154 and α-CD69 and analysed by flow cytometry to determine their activation status. To monitor T cells proliferation Calibrite Beads™ were added to the wells before cells were harvested.
Freshly isolated human PBMCs (2×10^6) were stimulated with plate-bound α-CD3 (1.25 and 2.5 μg/ml) for 24 h. PBMCs were harvested and stained with fluorochrome-conjugated antibodies for CD45RA, CD8, CD69 and CD154 and T cell activation was monitored by flow cytometry. […]

Data set [4] has as its system CD8+ human blood lymphocytes. Kind of data set: Human PBMC stimulation with plate-bound α-CD3, CD8+ T cell proliferation by flow cytometry with Calibrite Beads (FIG. 19). Conditions: human PBMCs, plate-bound α-CD3 for 48 h and 72 h, versus vehicle control. Format: cell-based. On the procedure: FIG. 19. […] Freshly isolated human PBMCs (2×10^6) were stimulated with plate-bound α-CD3 for (A) 48 h and (B) 72 h, in the presence of vehicle control or the PTPN2 inhibitor, compound 8 (as described herein). PBMCs were harvested and stained with fluorochrome-conjugated α-CD8. Calibrite Beads™ were added and T cell proliferation was monitored by flow cytometry. Results shown are means±SD for the indicated number of replicates.
as §1
Freshly isolated human PBMCs (2×10^6) were stimulated with plate-bound α-CD3 for (A) 48 h and (B) 72 h, in the presence of vehicle control or the PTPN2 inhibitor, compound 8 (as described herein). […] Calibrite Beads™ were added and T cell proliferation was monitored by flow cytometry. […]

In data set [5] the test system is Her-2 specific CAR T cells. Kind of data set: Her-2-specific CAR T cells incubated with 24JK-Her-2 sarcoma cells, secreted IFNγ by ELISA (FIG. 20). Type of data set: cell-based, mouse. Particulars: with 24JK-Her-2, 24JK or medium alone, versus vehicle control. On the procedure:
FIG. 20. […] Her-2-specific CAR T cells were incubated with Her-2 expressing 24JK sarcoma cells (24JK-Her-2) or 24JK sarcoma cells (24JK) or medium alone, in the presence of vehicle control or the PTPN2 inhibitor, compound 8 (described herein). T cell activation was assessed by monitoring for secreted IFNγ by ELISA (Mouse IFNγELISA Set, BD OptEIA™) according to the supplier's specifications. Tests were performed in triplicates (±SD).
Her-2-specific CAR T cells were incubated with Her-2 expressing 24JK sarcoma cells (24JK-Her-2) or 24JK sarcoma cells (24JK) or medium alone, in the presence of vehicle control or the PTPN2 inhibitor, compound 8 (described herein). T cell activation was assessed by monitoring for secreted IFNγ by ELISA (Mouse IFNγELISA Set, BD OptEIA™) according to the supplier's specifications. Tests were performed in triplicates (±SD).

On to “AAGCCCAUAUGAUCACAGUCG (listed as RNA, chemistry not given here) [PTPN2 siRNA, siRNA used to knock down Ptpn2 transiently in primary murine T cells (Dharmacon)]”, for which the “TCR-mediated T cell responses (CD8+ T cell number)” value in the data set with murine CD8+ T cells was “dose response increase in cell number”.

On to `CCc1ccc(C(=O)NCCCCC(NC(=O)C(Cc2ccc(C(F)(F)P(=O)(O)O)cc2)NC(=O)C(Cc2ccccc2)NC(=O)COC2CC(C)CCC2C(C)C)C(N)=O)cc1` (stereo not drawn) [compound 8], for which the “polyclonal CD8+ T cell activation (CD44, CD62L, CD25, CD69 surface levels, MFI)” value in data set [1] is listed as “enhances polyclonal CD8^+ T cell activation ex vivo”. The “activated phenotype of naive CD8+ T cells (CD44, CD69, CD25, CD62L MFI)” value in data set [2] was “stimulates naive CD8+ T cells to an activated phenotype”. For the same compound, in data set [3], the “TCR-mediated T cell activation (CD69, CD154)” value is reported as “enhanced TCR-mediated T cell activation”. Further, the “TCR-mediated T cell proliferation” value in data set [4] is given as “enhanced TCR-mediated T cell proliferation”. In addition, the “tumour-specific activation of Her-2 specific CAR T cells (secreted IFNγ)” value in data set [5] was “enhances the tumour-specific activation of Her-2 specific CAR T cells ex vivo”.
